The results in this text go back to patent publication US7704995B2 (Exelixis, Inc., priority 2003, dated 2010).

As usually defined, the IC50 is the concentration needed to halve the response being measured.

In the first assay the target is T1, Chk1 (Homo sapiens, UniProt O14757).
T1 construct: purchased Upstate Biotechnology
T1 sequence (O14757 1-476): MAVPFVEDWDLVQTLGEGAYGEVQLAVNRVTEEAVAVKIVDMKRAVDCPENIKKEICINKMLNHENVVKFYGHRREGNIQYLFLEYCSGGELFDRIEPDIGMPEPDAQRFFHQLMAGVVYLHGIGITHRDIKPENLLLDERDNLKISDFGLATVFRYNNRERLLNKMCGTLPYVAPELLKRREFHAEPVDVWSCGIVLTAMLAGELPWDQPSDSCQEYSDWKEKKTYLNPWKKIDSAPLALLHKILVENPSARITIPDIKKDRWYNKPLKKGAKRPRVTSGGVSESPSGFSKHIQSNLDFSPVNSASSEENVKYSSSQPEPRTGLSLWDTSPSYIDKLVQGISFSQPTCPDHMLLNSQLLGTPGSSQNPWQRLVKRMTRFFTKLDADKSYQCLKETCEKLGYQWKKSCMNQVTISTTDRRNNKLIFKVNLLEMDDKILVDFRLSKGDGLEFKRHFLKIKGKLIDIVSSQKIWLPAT
Briefly: Chk1 kinase assay: incorporation of γ-33P ATP into immobilized myelin basic protein. Format: biochemical. As to conditions: Table 11, Chk1 only; class symbols A-D; read-out: Chk1 IC50. The essentials: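 Chk1 (10 nM) or Chk2 (20 nM) phosphorylated plate-immobilized myelin basic protein for 1 h at room temperature in Hepes pH 7.6 buffer with MgCl2, DTT, 1% DMSO, γ-33P ATP plus 10 μM (Chk1) or 30 μM (Chk2) unlabeled ATP. Bound radioactivity counted by scintillation; IC50 determined, Ki derivable from IC50.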
On to `Nc1ncc(-c2cccc(C(=O)NCc3ccc(Cl)cc3F)c2)nc1C(=O)N[C@H]1CCCNC1` [Example 849, 3-amino-6-[3-({[(4-chloro-2-fluorophenyl)methyl]amino}carbonyl)phenyl]-N-[(3S)-piperidin-3-yl]pyrazine-2-carboxamide], for which the IC50 is under 0.05 µM.

For `CCNCCOc1cccc(-c2cnc(N)c(C(=O)N[C@H]3CCCNC3)n2)c1` [Example 964, 3-amino-6-(3-{[2-(ethylamino)ethyl]oxy}phenyl)-N-[(3S)-piperidin-3-yl]pyrazine-2-carboxamide], the IC50 was under 0.05 µM.

For the molecule `Nc1ncc(-c2cccc(CNS(=O)(=O)c3ccccc3C(F)(F)F)c2)nc1C(=O)N[C@H]1CCCNC1` [Example 915, 3-amino-N-[(3S)-piperidin-3-yl]-6-{3-[({[2-(trifluoromethyl)phenyl]sulfonyl}amino)methyl]phenyl}pyrazine-2-carboxamide], the IC50 was 0.05 to 1 µM.

As for `Nc1ncc(-c2cccc(CNC(=O)Nc3ccccc3Br)c2)nc1C(=O)N[C@H]1CCCNC1` [Example 922, 3-amino-6-{3-[({[(2-bromophenyl)amino]carbonyl}amino)methyl]phenyl}-N-[(3S)-piperidin-3-yl]pyrazine-2-carboxamide], the IC50 was under 0.05 µM.

Take `Nc1ncc(-c2cccc(NC(=O)c3cnc4ccccc4c3)c2)nc1C(=O)N[C@H]1CCCNC1` [Example 910, N-[3-(5-amino-6-{[(3S)-piperidin-3-ylamino]carbonyl}pyrazin-2-yl)phenyl]quinoline-3-carboxamide]: the half-inhibitory concentration (IC50) was under 0.05 µM.

On to `Nc1ncc(-c2cccc(C(=O)NCc3cc(F)c(F)c(F)c3)c2)nc1C(=O)N[C@H]1CCCNC1` [Example 1028, 3-amino-N-[(3S)-piperidin-3-yl]-6-[3-({[(3,4,5-trifluorophenyl)methyl]amino}carbonyl)phenyl]pyrazine-2-carboxamide], for which the concentration for half-maximal inhibition (IC50) was under 0.05 µM.

With `Nc1ncc(-c2cccc(C(=O)NCc3cccc(F)c3)c2)nc1-c1nnc([C@H]2CCCNC2)[nH]1` [Example 835, 3-(5-amino-6-{5-[(3S)-piperidin-3-yl]-4H-1,2,4-triazol-3-yl}pyrazin-2-yl)-N-[(3-fluorophenyl)methyl]benzamide], the IC50 is under 0.05 µM.

For the molecule `COC(=O)c1ccc(CNC(=O)c2cccc(-c3cnc(N)c(C(=O)N[C@H]4CCCNC4)n3)c2)cc1` [Example 869, methyl 4-[({[3-(5-amino-6-{[(3S)-piperidin-3-ylamino]carbonyl}pyrazin-2-yl)phenyl]carbonyl}amino)methyl]benzoate], the IC50 was under 0.05 µM.

The assay is the same for the next values; noted with them: Table 11; Chk1 only; read-out: Chk1 IC50.
In the case of `Nc1ncc(-c2cccc(C(=O)N[C@@H]3c4ccccc4C[C@@H]3O)c2)nc1C(=O)NCCc1c[nH]cn1` [Example 751, 3-amino-6-[3-({[(1R,2S)-2-hydroxy-2,3-dihydro-1H-inden-1-yl]amino}carbonyl)phenyl]-N-[2-(1H-imidazol-4-yl)ethyl]pyrazine-2-carboxamide], the IC50 was in the range of 0.05 to 1 µM.

`CCN1CC[C@H](NC(=O)c2nc(-c3cccc(C(=O)N[C@H]4CCc5ccccc54)c3)cnc2N)C1` [Example 706, 3-amino-6-(3-{[(1S)-2,3-dihydro-1H-inden-1-ylamino]carbonyl}phenyl)-N-[(3S)-1-ethylpyrrolidin-3-yl]pyrazine-2-carboxamide]: the IC50 lay in the range of 0.05 to 1 µM.

Consider `C/C(=N\Nc1ccc(S(C)(=O)=O)cc1)c1nc(-c2cccc(C(=O)NCc3ccccc3)c2)cnc1N` [Example 630, 3-(5-amino-6-{(1E)-N-[4-(methylsulfonyl)phenyl]ethanehydrazonoyl}pyrazin-2-yl)-N-(phenylmethyl)benzamide], for which the IC50 was at least 10 µM.

Turning to `Nc1ncc(-c2cccc(C(=O)NCc3ccccc3)c2)nc1C(=O)N[C@H]1CCN(C[C@H]2CCCN2)C1` [Example 689, 3-amino-6-(3-{[(phenylmethyl)amino]carbonyl}phenyl)-N-{(3S)-1-[(2R)-pyrrolidin-2-ylmethyl]pyrrolidin-3-yl}pyrazine-2-carboxamide], the half-maximal inhibitory concentration (IC50) is 1 to 10 µM.

`Nc1ncc(-c2cccc(C(=O)NCc3ccccc3)c2)nc1C(=O)NC1CCNCC1` [Example 564, 3-amino-6-(3-{[(phenylmethyl)amino]carbonyl}phenyl)-N-piperidin-4-ylpyrazine-2-carboxamide]: the IC50 is 0.05 to 1 µM.

Turning to `C/C(=N\NCCO)c1nc(-c2cccc(C(=O)NCc3ccccc3)c2)cnc1N` [Example 605, 3-{5-amino-6-[(1E)-N-(2-hydroxyethyl)ethanehydrazonoyl]pyrazin-2-yl}-N-(phenylmethyl)benzamide], the concentration for half-maximal inhibition (IC50) is 0.05 to 1 µM.

Take `CC(C)(C)OC(=O)N1CC[C@H](NC(=O)c2nc(-c3cccc(C(=O)NC(C)(C)c4ccccc4)c3)cnc2N)C1` [Example 800, 1,1-dimethylethyl (3S)-3-({[3-amino-6-(3-{[(1-methyl-1-phenylethyl)amino]carbonyl}phenyl)pyrazin-2-yl]carbonyl}amino)pyrrolidine-1-carboxylate]: the IC50 is at least 10 µM.

With `C/C(=N\N1CCCCCC1)c1nc(-c2cccc(C(=O)NCc3ccccc3)c2)cnc1N` [Example 674, 3-{5-amino-6-[(1E)-N-azepan-1-ylethanimidoyl]pyrazin-2-yl}-N-(phenylmethyl)benzamide], the IC50 was in the range of 0.05 to 1 µM.

With `CNC(=O)c1nc(-c2cccc(Cn3ccnc3)c2)cnc1N` [Example 504, 3-amino-6-[3-(1H-imidazol-1-ylmethyl)phenyl]-N-methylpyrazine-2-carboxamide], the IC50 was in the range of 0.05 to 1 µM.

With `CNC(=O)c1nc(-c2ccc3ccccc3c2)cnc1N` [Example 498, 3-amino-N-methyl-6-naphthalen-2-ylpyrazine-2-carboxamide], the IC50 was in the range of 0.05 to 1 µM.

Take `CC(=O)c1nc(-c2cccc(CN[C@H]3CCc4ccccc43)c2)cnc1N` [Example 531, 1-[3-amino-6-(3-{[(1S)-2,3-dihydro-1H-inden-1-ylamino]methyl}phenyl)pyrazin-2-yl]ethanone]: the IC50 was 0.05 to 1 µM.

For the molecule `Nc1ncc(-c2cccc(C(=O)NC3Cc4ccccc4C3)c2)nc1C(=O)N[C@H]1CCNC1` [Example 745, 3-amino-6-{3-[(2,3-dihydro-1H-inden-2-ylamino)carbonyl]phenyl}-N-[(3S)-pyrrolidin-3-yl]pyrazine-2-carboxamide], the IC50 was in the range of 0.05 to 1 µM.

The assay is the same for the next values; noted with them: read-out: Chk1 IC50.
`CNC(=O)c1nc(-c2cccc(C(=O)N[C@@H]3CCN(Cc4ccc(Cl)cc4)C3)c2)cnc1NCc1ccc(Cl)cc1` [Example 359, 3-{[(4-chlorophenyl)methyl]amino}-6-{3-[({(3R)-1-[(4-chlorophenyl)methyl]pyrrolidin-3-yl}amino)carbonyl]phenyl}-N-methylpyrazine-2-carboxamide]: the IC50 lay within 0.05 to 1 µM.

With `CNC(=O)c1nc(-c2cccc(C(=O)NCc3ccc(F)c(C)c3)c2)cnc1N` [Example 299, 3-amino-6-[3-({[(4-fluoro-3-methylphenyl)methyl]amino}carbonyl)phenyl]-N-methylpyrazine-2-carboxamide], the IC50 was in the range of 0.05 to 1 µM.

As for `CNC(=O)c1nc(-c2cccc(C(=O)NCc3cccc(O)c3)c2)cnc1N` [Example 326, 3-amino-6-[3-({[(3-hydroxyphenyl)methyl]amino}carbonyl)phenyl]-N-methylpyrazine-2-carboxamide], the 50% inhibitory concentration (IC50) was 0.05 to 1 µM.

`CNC(=O)c1nc(-c2cccc(C(=O)N3Cc4ccccc4C3)c2)cnc1N` [Example 143, 3-amino-6-[3-(1,3-dihydro-2H-isoindol-2-ylcarbonyl)phenyl]-N-methylpyrazine-2-carboxamide]: the IC50 lay within 1 to 10 µM.

Turning to `CCOC(=O)N1CCN(CCOc2cccc(-c3cnc(N)c(C(=O)NC)n3)c2)CC1` [Example 195, ethyl 4-{2-[(3-{5-amino-6-[(methylamino)carbonyl]pyrazin-2-yl}phenyl)oxy]ethyl}piperazine-1-carboxylate], the IC50 lay within 1 to 10 µM.

With `CNC(=O)c1nc(-c2cccc(C(=O)NCc3cccc(Cl)c3)c2)cnc1N` [Example 125, 3-amino-6-[3-({[(3-chlorophenyl)methyl]amino}carbonyl)phenyl]-N-methylpyrazine-2-carboxamide], the IC50 was 0.05 to 1 µM.

`CCNC(=O)c1nc(-c2cccc(C(=O)OC)c2)cnc1N` [Example 242, methyl 3-{5-amino-6-[(ethylamino)carbonyl]pyrazin-2-yl}benzoate]: the IC50 fell in the range of 1 to 10 µM.

On to `CNC(=O)c1nc(-c2cccc(C(=O)NCc3ccccc3OCCN3CCOCC3)c2)cnc1N` [Example 373, 3-amino-N-methyl-6-(3-{[({2-[(2-morpholin-4-ylethyl)oxy]phenyl}methyl)amino]carbonyl}phenyl)pyrazine-2-carboxamide], for which the half-maximal inhibitory concentration (IC50) was 0.05 to 1 µM.

As to `CNC(=O)c1nc(-c2cccc(C(=O)NCc3ccc(-c4csnn4)cc3)c2)cnc1N` [Example 376, 3-amino-N-methyl-6-{3-[({[4-(1,2,3-thiadiazol-4-yl)phenyl]methyl}amino)carbonyl]phenyl}pyrazine-2-carboxamide], the IC50 is under 0.05 µM.

With `CNC(=O)c1nc(-c2cccc(CS(=O)(=O)Cc3ccccc3)c2)cnc1N` [Example 313, 3-amino-N-methyl-6-(3-{[(phenylmethyl)sulfonyl]methyl}phenyl)pyrazine-2-carboxamide], the 50% inhibitory concentration (IC50) was 0.05 to 1 µM.
